Experiments:
Type in all cases: cell-based
[1] = system: recombinant Escherichia coli KO11; assay: Batch fermentation of E. coli KO11 in Luria broth and xylose with nutrient additives: ethanol production and cell growth; details: LB+xylose
Experimental: (§1) Two types of media were tested: 1% CSL and Luria broth (LB). Each contained 97 g of either xylose or glucose per liter. Luria Broth consists of, per liter: 10 g Difco® Tryptone, 5 g Difco® Yeast Extract and 5 g NaCl. The 1% CSL medium consists of Corn Steep Liquor (1% w/v) plus mineral salts (mineral salts per liter: 1 g of KH2PO4. 0.5 g of K2HPO4, 3.1 g of (NH4)2SO4, 0.4 g of MgCl2·6H2), and 20 mg FeCl3·6H2O).
(§2) Luria Broth was prepared by autoclaving a 2× nutrient stock containing, per liter: 20 g Difco® Tryptone, 10 g Difo® Yeast Extract, and 10 g NaCl. Sugars (xylose or glucose) were autoclaved separately. A 1% CSL medium was prepared as follows: Commercial Corn Steep Liquor (CSL; 50% dry weight/50% water) was diluted with tap water to make a 20X stock containing 100 g dry weight of Corn Steep Liquor/L and was adjusted to pH 7.2 with NaOH (50%). After sterilization by autoclaving, the 20X CSL stock was clarified by centrifugation at 5000×g for 10 minutes. Magnesium was added as a 100× stock solution (40 g/L MgCl2·6H2O). Iron was added as a 1000× stock solution made by dissolving 20 g FeCl3·6H2O in 175 mL of HCl and adjusting to 1 L with sterile water. Nitrogen, sulfur and phosphorus were added using a 20× stock solution containing the following (per liter): 20 g of KH2PO4, 10 g of K2HPO4 and 62 g of (NH4)2SO4. Stock solutions containing minerals were sterilized separately by autoclaving. Final media was prepared by adding 750 mL of water to 1 L bottle containing 100 g of xylose or glucose.
(§3) Inocula were grown in same media used for fermentation and were prepared as follows. Three colonies from a fresh plate were used to inoculate seed cultures: 250-mL flask containing 100 mL medium. These cultures were grown with agitation (120 rpm) for 12-16 hours at 35° C. to a final OD550nm of approximately 2.0-2.5. Cells were harvested by centrifugation at 5000×g for 5 minutes, and resuspended in fresh media to an OD550nm of 0.1. The resulting suspension was distributed into 500-mL beakers containing 345 ml each of fermentation medium. Acetaldehyde was added as indicated. Batch fermentations (35° C., 100 rpm) were maintained at pH 6.5 by the automatic addition of 2N KOH. Cell mass, ethanol, and base addition (2N KOH) were recorded during 96 hours of incubation.
(§4) Equivalent amounts of distilled water were added instead of the acetaldehyde in control experiments.
(§5) Additives (e.g., as listed in Table 1) were dissolved in 5 mL di-H2O. Solutions with pH lower than 5 were neutralized to pH 6.5 with 2N KOH. Nutritional supplements were then filter-sterilized (0.45 μm filter disk) directly into the fermentation vessel containing the culture. The final concentration of all additives in the culture medium was 2 g/L unless otherwise indicated.
(§6) Cell mass was estimated by measuring OD550nm using Baush & Lomb® Spectronic 70 spectrophotometer. […] Ethanol was measured by gas chromatography using a Varian® 3400 CX gas chromatograph with 1-propanol as an internal standard.
(§7) Tables 1, 3, and 5 show time to completion of fermentation, ethanol production, and volumetric productivity of the fermentation for all concentrations of the compound and the control. Maximum ethanol production is shown in grams/liter (g/L). The ethanol yield is shown in grams of ethanol/grams of added sugar. Maximum volumetric productivity is shown in grams ethanol/(liter)(hour). The average productivity is calculated form the start of fermentation to the completion of fermentation is grams ethanol/(liter)hour).
(§8) Tables 2, 4, and 6 show the initial growth of the cells (OD taken after the first 24 hours of fermentation) and the maximum cell density (the time which culture reaches the maximum OD value).
(§9) Acetaldehyde was added to the fermentation medium at five different concentrations and time points. […] Where two additions are indicated, the first volume was added at the start of fermentation and the second was added after 8 hours of fermentation.

[2] = system: recombinant Escherichia coli KO11; assay: Batch fermentation of E. coli KO11 in 1% CSL medium and glucose with nutrient additives: ethanol production and cell growth; details: additive 2 g/L unless indicated; for activity at 2000 µg/mL: Escherichia coli
Experimental: as §1, §2, §3, §4, §5, §6, §7, §8, §9

[3] = system: recombinant Escherichia coli KO11; assay: Batch fermentation of E. coli KO11 in 1% CSL medium and xylose with nutrient additives: ethanol production and cell growth; details: additive 2 g/L unless indicated; for activity at 2000 µg/mL: Escherichia coli
Experimental: as §1, §2
as §3, with “incubation. […]” for “incubation.”
as §5, §6, §7
Tables 2, 4, and 6 show the initial growth of the cells (OD taken after the first 24 hours of fermentation) and the maximum cell density (the time which culture reaches the maximum OD value). […]

[4] = additive 2 g/L unless indicated

O=C(O)CCC(=O)C(=O)O [a-KG, α-ketoglutarate]
Ethanol Production Maximum [1, 4]: 42.47 g/L | Ethanol yield [1, 4]: 0.437 grams of ethanol/grams of added sugar | Initial Growth (OD at 24 h) % Control [1, 4]: 102.79% | Initial Growth (OD at 24 h) OD [1, 4]: 10.27 OD | Time to completion [1, 4]: 48 h | Ethanol Production Maximum ([2]; 1% CSL+glucose): 40.33 g/L | Ethanol Production Maximum % Control ([2]; 1% CSL+glucose): 109.03% | Ethanol yield ([2]; 1% CSL+glucose): 0.415 grams of ethanol/grams of added sugar | Initial Growth (OD @ 24 h) % Control ([2]; 1% CSL+glucose): 123.05% | Initial Growth (OD @ 24 h) OD ([2]; 1% CSL+glucose): 3.29 OD | Time to completion ([2]; 1% CSL+glucose): 72 h | Ethanol Production Maximum ([3]; 1% CSL+xylose): 42.32 g/L | Ethanol Production Maximum % Control ([3]; 1% CSL+xylose): 140.70% | Ethanol yield ([3]; 1% CSL+xylose): 0.436 grams of ethanol/grams of added sugar | Initial Growth (OD @ 24 h) % Control ([3]; 1% CSL+xylose): 173.77% | Initial Growth (OD @ 24 h) OD ([3]; 1% CSL+xylose): 3.55 OD | Time to completion ([3]; 1% CSL+xylose): 72 h

CC(=O)C(=O)O [Pyruvate, pyruvate]
Ethanol Production Maximum ([1]; 2 g): 44.35 g/L | Ethanol Production Maximum % Control ([1]; 2 g): 102.96% | Ethanol yield ([1]; 2 g): 0.457 grams of ethanol/grams of added sugar | Initial Growth (OD at 24 h) % Control ([1]; 2 g): 113.09% | Initial Growth (OD at 24 h) OD ([1]; 2 g): 11.30 OD | Maximum Cell Density % Control ([1]; 2 g): 102.29% | Maximum Cell Density OD ([1]; 2 g): 11.30 OD | Maximum Cell Density Time ([1]; 2 g): 24 h | Time to completion ([1]; 2 g): 48 h | Volumetric Productivity Average ([1]; 2 g): 0.924 grams ethanol/(liter)(hour) | Volumetric Productivity Average % Control ([1]; 2 g): 102.96% | Volumetric Productivity Maximum ([1]; 2 g): 1.284 grams ethanol/(liter)(hour) | Volumetric Productivity Maximum % Control ([1]; 2 g): 111.47% | Ethanol Production Maximum ([1]; 4 g): 45.13 g/L | Ethanol Production Maximum % Control ([1]; 4 g): 104.76% | Ethanol yield ([1]; 4 g): 0.465 grams of ethanol/grams of added sugar | Initial Growth (OD at 24 h) % Control ([1]; 4 g): 114.64% | Initial Growth (OD at 24 h) OD ([1]; 4 g): 11.45 OD | Maximum Cell Density % Control ([1]; 4 g): 105.48% | Maximum Cell Density OD ([1]; 4 g): 11.65 OD | Maximum Cell Density Time ([1]; 4 g): 48 h | Time to completion ([1]; 4 g): 48 h | Volumetric Productivity Average ([1]; 4 g): 0.940 grams ethanol/(liter)(hour) | Volumetric Productivity Average % Control ([1]; 4 g): 104.76% | Volumetric Productivity Maximum ([1]; 4 g): 1.166 grams ethanol/(liter)(hour) | Volumetric Productivity Maximum % Control ([1]; 4 g): 101.27% | Ethanol Production Maximum ([2]; 1% CSL+glucose): 42.35 g/L | Ethanol yield ([2]; 1% CSL+glucose): 0.436 grams of ethanol/grams of added sugar | Initial Growth (OD @ 24 h) OD ([2]; 1% CSL+glucose): 3.46 OD | Maximum Cell Density OD ([2]; 1% CSL+glucose): 3.83 OD | Volumetric Productivity Average ([2]; 1% CSL+glucose): 0.441 grams ethanol/(liter)(hour) | Volumetric Productivity Maximum ([2]; 1% CSL+glucose): 0.663 grams ethanol/(liter)(hour) | activity at 2000 µg/mL ([2]; 24 h, 1% CSL+glucose, read-out: Initial Growth (OD @ 24 h) % Control): 129% | activity at 2000 µg/mL ([2]; read-out: Ethanol Production Maximum % Control, 1% CSL+glucose): 114% | activity at 2000 µg/mL ([2]; read-out: Volumetric Productivity Average % Control, 1% CSL+glucose): 114% | activity at 2000 µg/mL ([2]; read-out: Volumetric Productivity Maximum % Control, 1% CSL+glucose): 129% | activity at 2000 µg/mL ([2]; 1% CSL+glucose, read-out: Maximum Cell Density % Control): 142% | Ethanol Production Maximum ([3]; 1% CSL+xylose): 44.42 g/L | Ethanol yield ([3]; 1% CSL+xylose): 0.457 grams of ethanol/grams of added sugar | Initial Growth (OD @ 24 h) OD ([3]; 1% CSL+xylose): 4.11 OD | Maximum Cell Density Time ([3]; 1% CSL+xylose): 96 h | Volumetric Productivity Average ([3]; 1% CSL+xylose): 0.617 grams ethanol/(liter)(hour) | Volumetric Productivity Maximum ([3]; 1% CSL+xylose): 0.792 grams ethanol/(liter)(hour) | activity at 2000 µg/mL ([3]; 24 h, 1% CSL+xylose, read-out: Initial Growth (OD @ 24 h) % Control): 201% | activity at 2000 µg/mL ([3]; read-out: Ethanol Production Maximum % Control, 1% CSL+xylose): 148% | activity at 2000 µg/mL ([3]; read-out: Volumetric Productivity Average % Control, 1% CSL+xylose): 197% | activity at 2000 µg/mL ([3]; read-out: Volumetric Productivity Maximum % Control, 1% CSL+xylose): 215% | activity at 2000 µg/mL ([3]; 1% CSL+xylose, read-out: Maximum Cell Density % Control): 238%

— patent US20020137154A1, “Methods for improving cell growth and alcohol production during fermentation” (priority 2000, published 2002)
